This is an account of results in ChEMBL document CHEMBL3774354, “Discovery of Selective Histone Deacetylase 6 Inhibitors Using the Quinazoline as the Cap for the Treatment of Cancer” (J Med Chem, 2016).

What is called IC50 is the concentration that inhibits the measured activity by half. A low value points to greater potency. Broadly, the CL/F is clearance divided by bioavailability, as obtained after extravascular dosing. Usually Cmax stands for the highest concentration seen after dosing. As usually defined, the AUC(0-inf) is the area under the concentration-time curve extrapolated to infinity. In general, EC50 refers to the concentration giving half of the maximal effect.

One series has as its target Histone deacetylase 7 (Homo sapiens, UniProt Q8WUI4).
In series [1] the test system is Mus musculus. Briefly: Toxicity in NOD/SCID mouse xenografted with human MV4-11 cells assessed as change in body weight at 50 mg/kg, iv q2d for 12 days. Particulars: in vivo, 288 h. In kind it is organism-based. (Xenograft models place foreign cells or tissue in a host animal.)
For series [2], the target named is Histone deacetylase 7 (Homo sapiens) (UniProt Q8WUI4). Briefly: Inhibition of recombinant HDAC7 (unknown origin) using AMC labeled AC-peptide as substrate at 10 uM incubated for 1 hr by fluorescence analysis.
Chain of Histone deacetylase 7 (Homo sapiens) (Q8WUI4 whole entry): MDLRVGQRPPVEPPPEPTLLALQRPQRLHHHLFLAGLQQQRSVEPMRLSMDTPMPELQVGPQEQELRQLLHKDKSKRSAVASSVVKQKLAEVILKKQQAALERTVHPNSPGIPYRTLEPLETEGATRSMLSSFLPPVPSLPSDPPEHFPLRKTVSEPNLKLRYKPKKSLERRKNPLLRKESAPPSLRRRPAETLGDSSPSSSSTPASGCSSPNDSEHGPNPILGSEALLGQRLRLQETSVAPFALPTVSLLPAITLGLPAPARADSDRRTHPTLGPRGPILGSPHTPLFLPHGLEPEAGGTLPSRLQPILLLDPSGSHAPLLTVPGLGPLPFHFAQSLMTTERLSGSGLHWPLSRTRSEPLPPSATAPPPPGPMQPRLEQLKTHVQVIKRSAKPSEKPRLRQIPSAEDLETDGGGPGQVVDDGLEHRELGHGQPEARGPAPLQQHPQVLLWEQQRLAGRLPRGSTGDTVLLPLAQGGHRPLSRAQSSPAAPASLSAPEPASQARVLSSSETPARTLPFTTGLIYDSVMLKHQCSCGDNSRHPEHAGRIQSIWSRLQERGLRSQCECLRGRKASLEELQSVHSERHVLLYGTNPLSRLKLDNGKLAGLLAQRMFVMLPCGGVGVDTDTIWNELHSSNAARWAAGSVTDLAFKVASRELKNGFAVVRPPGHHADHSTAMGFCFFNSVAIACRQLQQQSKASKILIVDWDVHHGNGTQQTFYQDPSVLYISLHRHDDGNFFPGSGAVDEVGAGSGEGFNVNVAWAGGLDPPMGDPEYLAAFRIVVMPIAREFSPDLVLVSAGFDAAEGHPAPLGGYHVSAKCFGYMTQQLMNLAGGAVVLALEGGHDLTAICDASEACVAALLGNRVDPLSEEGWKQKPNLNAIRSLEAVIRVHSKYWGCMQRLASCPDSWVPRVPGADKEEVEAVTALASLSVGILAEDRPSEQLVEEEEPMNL
Series [3] is described as follows: Systemic clearance in Sprague-Dawley rat at 12 mg/kg, po measured up to 24 hrs by LC-MS/MS analysis. The class given is ADME, organism-based. Particulars: in vivo.
The next series has as its system A-375. Briefly: Antiproliferative activity against human A375 cells after 72 hrs by MTT assay. The class given is functional, cell-based. Particulars: A-375, 72 h.
For another series, the system named is Ramos. The series is described as follows: Cytotoxicity against human Ramos cells after 72 hrs by MTT assay. In kind it is functional, cell-based.
Series [4] in a line: Cmax in Sprague-Dawley rat at 12 mg/kg, iv administered by bolus injection measured up to 24 hrs by LC-MS/MS analysis. In kind it is ADME, organism-based. Details: dose 12 mg/kg, route intravenous. Particulars: in vivo.
The test system of series [5] is MV4-11. The series is described as follows: Antitumor activity against human MV4-11 cells xenografted in NOD/SCID mouse assessed as tumor mass change at 50 mg/kg, iv q2d for 12 days. In kind it is functional.
Series [6] can be described thus: Cytotoxicity against human RPMI8226 cells after 72 hrs by MTT assay. In kind it is functional, cell-based. Conditions: RPMI-8226, 72 h.
The subject of a further series is K562. The series is described as follows: Cytotoxicity against human K562 cells after 72 hrs by MTT assay. In kind it is functional, cell-based. Particulars: K562, 72 h. A general note: Tetrazolium dyes change colour on reduction, which living cells bring about.
Series [7] can be described thus: AUC (0 to infinity) in Sprague-Dawley rat at 12 mg/kg, po measured up to 24 hrs by LC-MS/MS analysis. Details: dose 12 mg/kg, route oral, time infinity. Particulars: in vivo. The class given is ADME, organism-based.
Series [8] is described as follows: Antitumor activity against human HCT116 cells xenografted in Balb/c nude mouse assessed as tumor mass change at 50 mg/kg, iv q2d for 9 days. In kind it is functional, HCT-116.
Series [9] relates to Mus musculus. Briefly: Toxicity in NOD/SCID mouse xenografted with human MV4-11 cells assessed as death at 50 mg/kg, iv q2d for 12 days. In kind it is organism-based. Conditions: in vivo, 288 h.
A short description of series [10]: Antitumor activity against human HCT116 cells xenografted in Balb/c nude mouse assessed as tumor mass change at 25 mg/kg, po q2d for 8 days. The class given is functional, HCT-116.
Series [11] is described as follows: Cytotoxicity against human HCT116 cells after 72 hrs by MTT assay. Conditions: HCT-116, 72 h. The class given is functional, cell-based.
Series [12] addresses T1, Protein deacetylase HDAC6 (Homo sapiens, UniProt Q9UBN7).
T1 sequence (Q9UBN7 whole entry): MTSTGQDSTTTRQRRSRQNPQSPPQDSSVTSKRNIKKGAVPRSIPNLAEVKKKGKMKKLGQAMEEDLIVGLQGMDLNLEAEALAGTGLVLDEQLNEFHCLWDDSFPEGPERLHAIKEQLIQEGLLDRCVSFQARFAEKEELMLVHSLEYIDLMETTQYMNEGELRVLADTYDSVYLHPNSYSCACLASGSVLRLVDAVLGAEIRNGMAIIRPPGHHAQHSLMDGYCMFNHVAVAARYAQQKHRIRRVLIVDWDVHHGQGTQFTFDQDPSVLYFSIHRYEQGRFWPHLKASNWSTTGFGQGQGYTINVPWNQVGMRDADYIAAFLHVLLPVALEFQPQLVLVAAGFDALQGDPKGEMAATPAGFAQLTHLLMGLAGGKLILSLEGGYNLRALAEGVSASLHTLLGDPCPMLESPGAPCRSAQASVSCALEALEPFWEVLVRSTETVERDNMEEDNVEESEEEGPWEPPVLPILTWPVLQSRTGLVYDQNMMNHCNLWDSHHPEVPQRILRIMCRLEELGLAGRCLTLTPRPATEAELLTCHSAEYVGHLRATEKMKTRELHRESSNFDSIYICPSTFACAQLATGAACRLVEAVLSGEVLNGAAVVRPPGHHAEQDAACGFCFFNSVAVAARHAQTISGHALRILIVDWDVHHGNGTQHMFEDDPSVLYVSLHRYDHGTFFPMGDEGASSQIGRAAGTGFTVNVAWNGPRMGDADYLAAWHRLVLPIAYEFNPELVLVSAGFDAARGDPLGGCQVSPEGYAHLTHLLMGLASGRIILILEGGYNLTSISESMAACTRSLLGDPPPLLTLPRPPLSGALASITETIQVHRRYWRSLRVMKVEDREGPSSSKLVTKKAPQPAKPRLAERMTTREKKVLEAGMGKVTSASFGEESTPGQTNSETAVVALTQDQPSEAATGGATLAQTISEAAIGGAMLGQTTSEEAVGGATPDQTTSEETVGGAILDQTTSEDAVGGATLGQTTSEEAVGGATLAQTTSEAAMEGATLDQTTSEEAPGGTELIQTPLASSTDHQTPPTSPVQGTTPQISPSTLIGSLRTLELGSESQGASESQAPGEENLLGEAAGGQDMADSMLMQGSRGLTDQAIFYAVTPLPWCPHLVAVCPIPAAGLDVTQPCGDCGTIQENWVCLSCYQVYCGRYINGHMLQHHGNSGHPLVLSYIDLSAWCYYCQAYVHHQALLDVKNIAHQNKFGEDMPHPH
The series is described as follows: Inhibition of HDAC6 in human HeLa cells assessed as induction of tubulin acetylation incubated for 6 hrs by cytoblot assay. In kind it is cell-based.

The test system of a further series is HT-29. The series is described as follows: Cytotoxicity against human HT-29 cells after 72 hrs by MTT assay. Particulars: HT-29, 72 h. In kind it is functional, cell-based.
For the next series, the target named is Histone deacetylase 5 (Homo sapiens, UniProt Q9UQL6). The series is described as follows: Inhibition of recombinant HDAC5 (unknown origin) using AMC labeled AC-peptide as substrate at 10 uM incubated for 1 hr by fluorescence analysis.
Chain of Histone deacetylase 5 (Q9UQL6 whole entry): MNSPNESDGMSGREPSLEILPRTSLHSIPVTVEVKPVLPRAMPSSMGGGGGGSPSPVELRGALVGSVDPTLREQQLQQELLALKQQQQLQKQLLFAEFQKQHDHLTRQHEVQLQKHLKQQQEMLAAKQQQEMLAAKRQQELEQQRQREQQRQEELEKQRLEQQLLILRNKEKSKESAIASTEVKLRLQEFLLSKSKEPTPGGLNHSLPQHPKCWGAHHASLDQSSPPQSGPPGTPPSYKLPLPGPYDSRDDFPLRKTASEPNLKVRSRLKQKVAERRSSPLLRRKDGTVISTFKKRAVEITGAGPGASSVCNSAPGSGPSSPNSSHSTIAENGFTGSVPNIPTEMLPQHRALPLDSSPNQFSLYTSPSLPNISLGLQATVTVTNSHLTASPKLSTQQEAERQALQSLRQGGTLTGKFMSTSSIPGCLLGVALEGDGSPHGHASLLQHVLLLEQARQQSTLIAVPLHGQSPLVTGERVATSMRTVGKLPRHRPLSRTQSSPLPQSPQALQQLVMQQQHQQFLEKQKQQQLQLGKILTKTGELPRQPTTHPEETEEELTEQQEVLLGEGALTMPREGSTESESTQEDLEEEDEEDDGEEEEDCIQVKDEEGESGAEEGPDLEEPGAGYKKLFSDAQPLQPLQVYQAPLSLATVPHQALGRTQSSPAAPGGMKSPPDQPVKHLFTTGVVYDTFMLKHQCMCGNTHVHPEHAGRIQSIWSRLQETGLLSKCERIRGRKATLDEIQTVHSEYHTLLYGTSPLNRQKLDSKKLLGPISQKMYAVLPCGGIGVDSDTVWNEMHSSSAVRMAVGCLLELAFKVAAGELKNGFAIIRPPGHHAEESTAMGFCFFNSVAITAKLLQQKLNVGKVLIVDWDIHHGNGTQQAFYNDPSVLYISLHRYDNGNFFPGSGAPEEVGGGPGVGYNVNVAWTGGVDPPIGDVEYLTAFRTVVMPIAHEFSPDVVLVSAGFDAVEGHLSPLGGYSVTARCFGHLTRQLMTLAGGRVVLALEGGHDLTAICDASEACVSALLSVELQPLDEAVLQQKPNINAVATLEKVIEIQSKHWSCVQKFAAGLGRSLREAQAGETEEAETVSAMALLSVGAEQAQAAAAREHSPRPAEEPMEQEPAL
Series [13] addresses T2, Protein deacetylase HDAC6 (Homo sapiens) (UniProt Q9UBN7).
T2 sequence (whole entry): T1 sequence (Q9UBN7 whole entry)
The series is described as follows: Inhibition of HDAC6 in human HCT116 cells assessed as upregulation of alpha- tubulin acetylation after 6 hrs by Western blot analysis. The class given is cell-based. Particulars: HCT-116. Background: A western blot detects proteins with antibodies after separation by electrophoresis.

Series [14] deals with MV4-11. The series is described as follows: Cytotoxicity against human MV4-11 cells after 72 hrs by MTT assay. The class given is functional, cell-based. Conditions: MV4-11, 72 h.
Series [15] can be described thus: Cytotoxicity against human U266 cells after 72 hrs by MTT assay. The class given is functional, cell-based. Particulars: U-266, 72 h.
In the next series the test system is A549. The series is described as follows: Cytotoxicity against human A549 cells after 72 hrs by MTT assay. Particulars: A549, 72 h. The class given is functional, cell-based.

Activity calls are given as the source filed them. The rule behind the calls is not given here. Some results are limits rather than exact numbers.

Chain of Histone deacetylase 7 (Q8WUI4 whole entry): as the sequence (Q8WUI4 whole entry) above

`COc1ccc(N(C)c2nc(C)nc3ccccc23)cc1OCCCC(=O)NO`: the IC50 at Histone deacetylase 7 is over 10000 nM; in the series on A-375, 45 nM; with Ramos, 71 nM; in series [6], 15 nM; in the series with K562, 63 nM; in series [11], 35 nM. Moreover, the 50% inhibitory concentration (IC50) in the series with HT-29 worked out at 72 nM; in the series on MV4-11 [14], 60 nM; in series [15], 14 nM; in the series with A549, 104 nM. Also, the Activity in the series on Mus musculus [1] is recorded as -3.8%; in the series with MV4-11 [5], 55%; in series [8], 76.3%; in the series with Mus musculus [9] it was “Non-toxic”; in series [10] it was 60.4%. Further, the inhibition result (in series [2]; at Histone deacetylase 5) was “inactive” each time. The apparent clearance CL/F in series [3] is 215 mL/min/kg. In [4], this compound yielded a Cmax of 2210 ng/mL. Also, the AUC(0-inf) in series [7] was determined as 1240 ng·h/mL. Also, in series [12], the concentration for a half-maximal effect (EC50) is 58.9 nM. Further, in series [13], the inhibition result is “Dose-dependent effect”.
